“And” between values parts separate entries of the source, which are not always exact repeats. Identical values can stand only once.
Key:
Assay type in all cases: in vivo, human
[1] = Intensity of gastritis by histopathological examination before and after treatment (Sydney System)
Method: (§1) Patients included in the sample performed two esophagogastroduodenoscopy tests (EGD) with biopsy and analysis for Helicobacter pylori. The first test was made before the treatment, and the second, after four weeks (28 days) on medication. The protocol for administration of medications included: ingestion of one (1) the tablet based on Aroeira (about 233.60 mg) twice daily for four weeks (28 days), or the ingestion of 20 mg Omeprazole, two tablets twice daily for the same period. Classification with gradations and intensity of gastritis was based on the Sydney System. For data analysis, we used the Epi Info program, v.3.5.1, and Microsoft Excel 2007. Since they are categorical variables, Odds Ratios were evaluated and significant results were verified through a crude chi-squared test or with a Yates correction, when applicable, and alternatively the Fisher Exact Test when indicated. A Z test was also used to compare proportions when the expected frequencies were greater than or equal to 5. Confidence intervals were calculated for 95% confidence, with significant differences smaller than 5%.

[2] = test system: Helicobacter pylori; assay: Analysis for Helicobacter pylori in biopsy after treatment; conditions: after 28 days
Method: as §1, with “period.” for “period. Classification with gradations and intensity of gastritis was based on the Sydney System.”

[3] = Esophagogastroduodenoscopy (EGD) before and after four weeks of treatment: gastritis present or absent; conditions: 2nd EGD after 28 days
Description: as §1, with “To evaluate the efficacy of hydroalcoholic extract of S. terebinthifolius in the form of a medication, 72 volunteer patients of both genders with diagnosed gastritis were selected. Anthropomorphic characteristics, such as age, weight and height were similar. The criteria for inclusion of patients in the sample were aged between 16 and 80 years (mean age was 40 years), with diagnosis of gastritis confirmed by endoscopy and pathological examination, and consent after clarification for study participation. We excluded patients who were treated with proton pump inhibitors, anti-inflammatory non-steroidal, H-2 receptor blockers and/or antacids during the month preceding the study. Patients” for “Patients”

[4] = Patient questionnaire on gastritis symptoms before and after treatment; conditions: gastritis patients, oral, four weeks (28 days)
Description: To evaluate the efficacy of hydroalcoholic extract of S. terebinthifolius in the form of a medication, 72 volunteer patients of both genders with diagnosed gastritis were selected. Anthropomorphic characteristics, such as age, weight and height were similar. The criteria for inclusion of patients in the sample were aged between 16 and 80 years (mean age was 40 years), with diagnosis of gastritis confirmed by endoscopy and pathological examination, and consent after clarification for study participation. We excluded patients who were treated with proton pump inhibitors, anti-inflammatory non-steroidal, H-2 receptor blockers and/or antacids during the month preceding the study.
The sample was randomly divided into two groups:
Group I—38 patients who used the medication based on Aroeira (Schinus terebinthifolius Raddi);
Group II—34 patients who used the drug Omeprazole (control group).
The protocol for administration of medications included: ingestion of one (1) the tablet based on Aroeira (about 233.60 mg) twice daily for four weeks (28 days), or the ingestion of 20 mg Omeprazole, two tablets twice daily for the same period.
For data analysis, we used the Epi Info program, v.3.5.1, and Microsoft Excel 2007. Since they are categorical variables, Odds Ratios were evaluated and significant results were verified through a crude chi-squared test or with a Yates correction, when applicable, and alternatively the Fisher Exact Test when indicated. A Z test was also used to compare proportions when the expected frequencies were greater than or equal to 5. Confidence intervals were calculated for 95% confidence, with significant differences smaller than 5%.
The results were obtained through a questionnaire completed by each patient, under the supervision of a specialist.

[5] = intensity before treatment Mild/Discrete
[6] = intensity before treatment Moderate

Compound: COc1ccc2[nH]c([S+]([O-])Cc3ncc(C)c(OC)c3C)nc2c1 (stereo not shown) [Omeprazole]
- Intensity after treatment Mild/Discrete, % [1, 5]: 54.50%
- Intensity after treatment Mild/Discrete, No. of patients [1, 5]: 12
- Intensity after treatment Moderate, % [1, 5]: 45.5%
- Intensity after treatment Moderate, N of patients [1, 5]: 10
- Intensity after treatment Mild/Discrete, % (improvement) [1, 6]: 27.30%
- Intensity after treatment Moderate, % [1, 6]: 72.70%
- Intensity after treatment Moderate, N of patients [1, 6]: 8
- H. pylori Absent after treatment, % (eradication rate) [2]: 9.4% and 9.38%
- H. pylori Absent after treatment, N° of patients [2]: 3
- H. pylori Present after treatment, % [2]: 90.63%
- H. pylori Present after treatment, N° of patients [2]: 29
- Gastritis Absent after treatment, % (disappearance of endoscopic mucosal injury) [3]: 0%
- Gastritis Absent after treatment, N° of patients [3]: 0
- Gastritis Present after treatment, % [3]: 100%
- Gastritis Present after treatment, N° of patients [3]: 34
- Percentage of improvement in symptoms after treatment: Abdominal discomfort relieved with meals [4]: 85.70%
- Percentage of improvement in symptoms after treatment: Frequent epigastric pain [4]: 72.70%
- Percentage of improvement in symptoms after treatment: Heartburn [4]: 71.40%
- Percentage of improvement in symptoms after treatment: Nausea [4]: 72.20%

Reference: patent US10383909B2, “Use of a plant extract, pharmaceutical compositions and use thereof” (HEBRON FARMACEUTICA PESQUISA, DESENVOLVIMENTO E INOVACAO …, priority 2010, dated 2019)
